Assay results published in PMC8791944, “GLUT3 inhibitor discovery through in silico ligand screening and in vivo validation in eukaryotic expression systems” (Scientific Reports, 2022).
Where “and” joins values, the source holds several entries; their conditions need not be identical. Equal entries are not always repeated. Entries after “also recorded” stand apart in the source; their conditions may differ. Where two headings read alike, the source gives them in different places.

Target: T1, GLUT3S66Y (Homo sapiens, UniProt P11169, S66Y)
T1 construct: expressed in transfected cells; host or cells: Saccharomyces cerevisiae hxt0 strain EBY.S7 (fgy1)
T1 sequence (P11169 1-496 S66Y): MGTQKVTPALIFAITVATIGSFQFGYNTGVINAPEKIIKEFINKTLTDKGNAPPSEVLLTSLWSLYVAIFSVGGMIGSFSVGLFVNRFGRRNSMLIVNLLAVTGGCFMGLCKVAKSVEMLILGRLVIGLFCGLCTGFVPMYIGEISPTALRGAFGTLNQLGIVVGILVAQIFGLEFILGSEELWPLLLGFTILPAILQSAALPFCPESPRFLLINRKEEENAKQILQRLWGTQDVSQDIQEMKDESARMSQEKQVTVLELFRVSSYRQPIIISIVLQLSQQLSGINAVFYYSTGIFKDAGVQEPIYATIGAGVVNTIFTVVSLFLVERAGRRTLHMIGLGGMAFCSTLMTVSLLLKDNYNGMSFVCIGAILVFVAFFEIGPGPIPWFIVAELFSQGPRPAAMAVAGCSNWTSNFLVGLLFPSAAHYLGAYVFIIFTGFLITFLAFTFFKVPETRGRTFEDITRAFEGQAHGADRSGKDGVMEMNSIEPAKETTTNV
Assay: Glucose transport assay, GLUT3S66Y expressed in hxt^0 yeast cells EBY.S7
Assay type: cell-based
Conditions: for Inhibition mode in GLUT3: Dixon plots, versus glucose; for Ki: Ki for GLUT3 inhibition (Dixon plot), Dixon plots with GLUT3S66Y at 0.75, 1.50 and 3.00 mM glucose, competitive with glucose
Source text: We determined GLUT3 transport activity by measuring the accumulation of radioactive glucose inside whole hxt^0 yeast cells (see “Materials and methods” for details). To select an appropriate substrate concentration for transport inhibition screening, we assessed the KM of glucose for GLUT3 in hxt^0 cells. […] Indeed, functional expression of human GLUTs in hxt^0 cells often requires mutations in genes related to yeast lipid composition[65],[73] as well as single-site mutations that may favor the outward-facing conformation of the transporters[65]–[67].
The plasmids containing functional constructs of GLUT1-5 were transformed in the corresponding hxt^0 strains[65],[66],[73] (EBY.VW4000 for GLUT5S72Y, EBY.S7 for GLUT1, GLUT2∆loopS_Q455R, GLUT3 and GLUT3S66Y, and SDY.022 for GLUT4) and grown on 2% (w/v) agar plates of the respective media supplemented with 1% (w/v) maltose. An initial culture of ~ 10 ml was started with a few colonies and grown for 2–3 days if the media was SC-uracil with 1% (w/v) maltose (GLUT1, GLUT3, GLUT4) or 1–2 days if the media was YEP with 1% (w/v) maltose and 100 µg/ml geneticin G418 (GLUT2∆loopS_Q455R and GLUT5S72Y). Cells were washed once in the corresponding media in which maltose was substituted with 0.1–2% hexose substrate for the expressing GLUT (i.e., SC-uracil, 2% (w/v) glucose for GLUT1; SC-uracil, 0.2% (w/v/) glucose for GLUT3 and GLUT4; YEP, 0.2% (w/v) glucose, 100 µg/ml geneticin G418 for GLUT2∆loopS_Q455R, and YEP, 2% (w/v) fructose for GLUT5 S72Y). Then, cells were transferred in the same media so that OD600nm ~ 0.5 and grown further for 1–2 days.
For transport activity assay, cells in the hexose media were centrifuged (1000×g, 5 min, room temperature), washed once with PBS buffer (10 mM Na2HPO4, 1.8 mM KH2PO4, 2.7 mM KCl, 137 mM NaCl, pH 7.4), and resuspended in PBS buffer at an OD600nm ~ 10; each assay contained 100 µl of this cell solution. Transport activity assay was started by adding C^14-hexose at a substrate concentration corresponding to the respective KM (5 mM glucose for GLUT1 or GLUT4, 3 mM glucose for GLUT3 or 1.5 mM glucose for GLUT3S66Y, 15 mM glucose for GLUT2∆loopS_Q455R, and 10 mM fructose for GLUT5S72Y); for determining the glucose KM in GLUT3 and GLUT3S66Y, substrate concentrations were varied accordingly. […] The filtration membranes were transferred into scintillation vials with 10 ml of Scintillation Solution (BioSafeII; Research Products International, Mount Prospect, IL, USA), and vortexed briefly. The radioactivity was determined with a scintillation counter (Tri-carb 2900TR, Perkin Elmer, USA). As all compounds were solubilized in dimethyl sulfoxide (DMSO), controls for determining the relative transport activity included 1% (v/v) DMSO to represent DMSO used as vehicle control (i.e., 100% activity), and known inhibitors at saturating concentrations, 200 µM phloretin for GLUT1-4[69],[82], and 100 µM N-[4-(methylsulfonyl)-2-nitrophenyl]-1,3-benzodioxol-5-amine (MSNBA) for GLUT5 (i.e., complete inhibition). […] Data were analyzed with GraphPad Prism (San Diego, CA, USA).
Supplementary Figure S3. Dose response curves for G3iA-G3iF inhibition of GLUT3S66Y. […] Error bars represent standard deviations from at least three independent measurements. Graphs, data analysis, and IC50 values were generated with GraphPad (www.graphpad.com).
Inhibition mode of G3iA, G3iC, and G3iE in GLUT3. (A-C) Dixon plots^2 for GLUT3S66Y inhibition by G3iA, G3iC, and G3iE, respectively.

SMILES	IC50	Inhibition mode in GLUT3	Inhibition mode in GLUT3 (listed as G2iA)	Ki	IC50 (read-out: IC50 for GLUT3S66Y transport inhibition)
CC(=O)Nc1ccc(S(=O)(=O)Nc2ccc(Nc3cc(N(C)C)nc(C)n3)cc2)cc1 [G3iA, N-(4-{[(4-{[6-(dimethylamino)-2-methylpyrimidin-4-yl]amino}phenyl)amino]sulfonyl}phenyl)acetamide]	6.21 ± 0.95 µM	competitive inhibition with glucose	competitive inhibition mode	3.49 µM and ~3.5 µM	
COc1ccccc1-n1c(/C=C/c2ccc(O)cc2)nc2ccc(Br)cc2c1=O [G3iB, 6-bromo-2-[(E)-2-(4-hydroxyphenyl)ethenyl]-3-(2-methoxyphenyl)quinazolin-4(3H)-one]					9.62 ± 1.17 µM
Cc1cccnc1OC1CCN(c2cc(N3CCCC3CO)ncn2)CC1 (stereo not shown) [G3iC]	10.1 ± 2.1 µM	competitive inhibition with glucose; also recorded: competitive inhibition mode		5.83 ± 0.3 µM	
Cc1cc(NC(=O)CCC2Cc3ccccc3NC2=O)nc(-c2ccccc2)n1 (stereo not shown) [G3iD]	12.6 ± 1.6 µM				
O=C(Nc1cccc(Cl)c1)c1cccc(NC(=O)c2cccc([N+](=O)[O-])c2)c1 [G3iE, N-{3-[(3-chloroanilino)carbonyl]phenyl}-3-nitrobenzamide]	20.6 ± 2.4 µM	competitive inhibition with glucose; also recorded: competition with glucose; also recorded: competitive inhibition mode		12.3 ± 0.9 µM	
Cc1ccccc1CN(Cc1nnc(C(C)(C)C)o1)c1ccc2nc(O)[nH]c2c1 [G3iF]	24.8 ± 6 µM				
